From patent publication US20260234101A1, “COMPOUNDS, THEIR COMPOSITION AND THEIR USE AS NEMATICIDES” (priority 2023, published 2026)

Assays:
[1] = tested on: Root-knot nematodes (Meloidogyne spp), juveniles (J2); assay: Nematocidal activity against root-knot nematodes, 24 well bioassay plate, percent mortality; format: in vivo; conditions: 70-100 J2 juveniles per well, 22±2° C., 70±5% RH, dead/inactive counted at 24, 48, 72 and 96 hours, read-out: Rating (% Mortality)
Procedure: The compound to be tested (4 mg) was dissolved in 40 μl of DMSO to make 100,000 PPM concentration stock solution. The clear solution was obtained by vortexing. The nematode suspension (250 μl) having 70-100 juveniles (J2) of Root-knot nematodes Meloidogyne spp. pipetted out to each cell of 24 well bioassay plate. Sterile water (1 ml) was pipetted out in fresh 2.5 ml Eppendorf micro-centrifuge tubes. The desired concentration (500 ppm) of the compound was prepared by adding stock solution in 2.5 ml Eppendorf micro-centrifuge tubes. For each treatment 4 replications were maintained. The bioassay plates were incubated at 22±2° C. and 70±5% RH in humidity chambers.

[2] = Stability studies: storage at room temperature and accelerated storage condition, purity estimated by HPLC; format: physicochemical; conditions: properly packed material; for purity estimated by HPLC, Day 14, Condition 54° C. ± 2° C. / purity estimated by HPLC, Day Zero, Condition 54° C. ± 2° C.: 54° C. ± 2° C. (accelerated storage)
Text: The compounds of present invention were stored under conditions as shown in below table [room temperature and on accelerated storage condition (ATS)] and the purity was estimated by HPLC. The properly packed material was subjected to the conditions mentioned in the table below.

SMILES	mortality at 500 ppm [1] [%]	other results
N=C(N)NCCC[C@H](/N=C/c1ccccc1C(F)(F)F)C(=O)O [Example 1, (E)-N^2-{[2-(trifluoromethyl)phenyl]methylidene}-L-arginine]	70 to 100	–
N=C(N)NCCC[C@H](/N=C/c1cccc(C(F)(F)F)c1)C(=O)O [Example 2, (E)-N^2-{[3-(trifluoromethyl)phenyl]methylidene}-L-arginine]	70 to 100	purity estimated by HPLC, Day 14, Condition 25° C. ± 2° C. [2]: 99.70; purity estimated by HPLC, Day 14, Condition 54° C. ± 2° C. [2]: 99.55; purity estimated by HPLC, Day Zero, Condition 25° C. ± 2° C. [2]: 99.71; purity estimated by HPLC, Day Zero, Condition 54° C. ± 2° C. [2]: 99.60
N=C(N)NCCC[C@H](/N=C/c1ccc(Cl)cc1O)C(=O)O [Example 3, (E)-N^2-[(4-chloro-2-hydroxyphenyl)methylidene]-L-arginine]	50 to 69	–
N=C(N)NCCC[C@H](/N=C/c1c(O)cccc1Cl)C(=O)O [Example 4, (E)-N^2-[(6-chloro-2-hydroxyphenyl)methylidene]-L-arginine]	50 to 69	–
N=C(N)NCCC[C@H](/N=C/c1cccc(F)c1O)C(=O)O [Example 5, (E)-N^2-[(3-fluoro-2-hydroxyphenyl)methylidene]-L-arginine]	70 to 100	–
N=C(N)NCCC[C@H](/N=C/c1ccc(F)cc1O)C(=O)O [Example 6, (E)-N^2-[(4-fluoro-2-hydroxyphenyl)methylidene]-L-arginine]	70 to 100	–
N=C(N)NCCC[C@H](/N=C/c1cc(F)ccc1O)C(=O)O [Example 7, (E)-N^2-[(5-fluoro-2-hydroxyphenyl)methylidene]-L-arginine]	70 to 100	–
N=C(N)NCCC[C@H](/N=C/c1c(O)cccc1F)C(=O)O [Example 8, (E)-N^2-[(6-fluoro-2-hydroxyphenyl)methylidene]-L-arginine]	70 to 100	–
COc1cccc(/C=N/[C@@H](CCCNC(=N)N)C(=O)O)c1O [Example 9, (E)-N^2-[(2-hydroxy-3-methoxyphenyl)methylidene]L-arginine]	0 to 49	–
COc1ccc(O)c(/C=N/[C@@H](CCCNC(=N)N)C(=O)O)c1 [Example 10, (E)-N^2-[(2-hydroxy-5-methoxyphenyl)methylidene]-L-arginine]	50 to 69	–
COc1cccc(O)c1/C=N/[C@@H](CCCNC(=N)N)C(=O)O [Example 11, (E)-N^2-[(2-hydroxy-6-methoxyphenyl)methylidene]-L-arginine]	70 to 100	purity estimated by HPLC, Day 14, Condition 25° C. ± 2° C. [2]: 99.00; purity estimated by HPLC, Day 14, Condition 54° C. ± 2° C. [2]: 98.85; purity estimated by HPLC, Day Zero, Condition 25° C. ± 2° C. [2]: 99.10; purity estimated by HPLC, Day Zero, Condition 54° C. ± 2° C. [2]: 99.20
Cc1cc(O)cc(O)c1/C=N/[C@@H](CCCNC(=N)N)C(=O)O [Example 12, (E)-N^2-[(2,4-dihydroxy-6-methylphenyl)methylidene]-L-arginine]	0 to 49	–
COc1ccc(/C=N/[C@@H](CCCNC(=N)N)C(=O)O)c(OC)c1 [Example 13, (E)-N^2-[(2,4-dimethoxyphenyl)methylidene]-L-arginine]	0 to 49	–
N=C(N)NCCC[C@H](/N=C/c1cc(OC(F)(F)F)ccc1O)C(=O)O [Example 14, (E)-N^2-{[2-hydroxy-5-(trifluoromethoxy)phenyl]methylidene}-L-arginine]	50 to 69	–
N=C(N)NCCC[C@H](/N=C/c1cc(F)cc(Cl)c1O)C(=O)O [Example 15, (E)-N^2-[(3-chloro-5-fluoro-2-hydroxyphenyl)methylidene]-L-arginine]	0 to 49	–
COc1ccc(/C=N/[C@@H](CCCNC(=N)N)C(=O)O)cc1 [Example 16, (E)-N^2-[(4-methoxyphenyl)methylidene]-L-arginine]	70 to 100	–
COc1ccc(/C=N/[C@@H](CCCNC(=N)N)C(=O)O)cc1O [Example 17, (E)-N^2-[(3-hydroxy-4-methoxyphenyl)methylidene]-L-arginine]	0 to 49	–

SMILES	mortality at 500 ppm [1] [%]	other results
COc1ccc(/C=N/[C@@H](CCCNC(=N)N)C(=O)O)cc1Cl [Example 18, (E)-N^2-[(3-chloro-4-methoxyphenyl)methylidene]-L-arginine]	50 to 69	–
CSc1ccc(/C=N/[C@@H](CCCNC(=N)N)C(=O)O)cc1 [Example 19, (E)-N^2-{[4-(methylsulfanyl)phenyl]methylidene}-L-arginine]	50 to 69	–
C=CCc1cc(/C=N/[C@@H](CCCNC(=N)N)C(=O)O)c(O)c(OC)c1 [Example 20, (E)-N^2-{[2-hydroxy-3-methoxy-5-(prop-2-en-1-yl)phenyl]methylidene}-L-arginine]	70 to 100	–
C=CCc1cc(/C=N/[C@@H](CCCNC(=N)N)C(=O)O)c(OC)c(OC)c1 [Example 21, (E)-N^2-{[2,3-dimethoxy-5-(prop-2-en-1-yl)phenyl]methylidene}-L-arginine]	70 to 100	–
C=CCc1cccc(/C=N/[C@@H](CCCNC(=N)N)C(=O)O)c1O [Example 22, (E)-N2-{[2-hydroxy-3-(prop-2-en-1-yl)phenyl]methylidene}-L-arginine]	70 to 100	purity estimated by HPLC, Day 14, Condition 25° C. ± 2° C. [2]: 99.50; purity estimated by HPLC, Day 14, Condition 54° C. ± 2° C. [2]: 99.30; purity estimated by HPLC, Day Zero, Condition 25° C. ± 2° C. [2]: 99.60; purity estimated by HPLC, Day Zero, Condition 54° C. ± 2° C. [2]: 99.63
N=C(N)NCCC[C@H](/N=C/c1c[nH]c2ccccc12)C(=O)O [Example 23, (E)-N^2-[(1H-indol-3-yl)methylidene]-L-arginine]	50 to 69	–
N=C(N)NCCC[C@H](/N=C/c1ccc2c(c1)OCO2)C(=O)O [Example 24, (E)-N^2-[(2H-1,3-benzodioxol-5-yl)methylidene]-L-arginine]	50 to 69	purity estimated by HPLC, Day 14, Condition 25° C. ± 2° C. [2]: 98.80; purity estimated by HPLC, Day 14, Condition 54° C. ± 2° C. [2]: 98.90; purity estimated by HPLC, Day Zero, Condition 25° C. ± 2° C. [2]: 98.90; purity estimated by HPLC, Day Zero, Condition 54° C. ± 2° C. [2]: 98.75
N=C(N)NCCC[C@H](/N=C/c1ccco1)C(=O)O [Example 25, (E)-N^2-[(furan-2-yl)methylidene]-L-arginine]	70 to 100	–
Cc1ccc(/C=N/[C@@H](CCCNC(=N)N)C(=O)O)o1 [Example 26, (E)-N^2-[(5-methylfuran-2-yl)methylidene]-L-arginine]	70 to 100	purity estimated by HPLC, Day 14, Condition 25° C. ± 2° C. [2]: 99.10; purity estimated by HPLC, Day 14, Condition 54° C. ± 2° C. [2]: 99.00; purity estimated by HPLC, Day Zero, Condition 25° C. ± 2° C. [2]: 99.20; purity estimated by HPLC, Day Zero, Condition 54° C. ± 2° C. [2]: 99.00
N=C(N)NCCC[C@H](/N=C/c1ccc(CO)o1)C(=O)O [Example 27, (E)-N^2-{[5-(hydroxymethyl)furan-2-yl]methylidene}-L-arginine]	50 to 69	–
N=C(N)NCCC[C@H](/N=C/c1cccc2ccccc12)C(=O)O [Example 28, (E)-N2-[(naphthalen-1-yl)methylidene]-L-arginine]	50 to 69	–
N=C(N)NCCC[C@H](/N=C/c1cccnc1)C(=O)O [Example 29, (E)-N2-[(pyridin-3-yl)methylidene]-L-arginine]	50 to 69	–
N=C(N)NCCC[C@H](/N=C/c1ccc2ccccc2c1)C(=O)O [Example 30, (E)-N2-[(naphthalen-2-yl)methylidene]-L-arginine]	70 to 100	purity estimated by HPLC, Day 14, Condition 25° C. ± 2° C. [2]: 99.65; purity estimated by HPLC, Day 14, Condition 54° C. ± 2° C. [2]: 99.45; purity estimated by HPLC, Day Zero, Condition 25° C. ± 2° C. [2]: 99.70; purity estimated by HPLC, Day Zero, Condition 54° C. ± 2° C. [2]: 99.65
N=C(N)NCCC[C@H](/N=C/c1ccsc1)C(=O)O [Example 31, (E)-N2-[(thiophen-3-yl)methylidene]-L-arginine]	50 to 69	–
C=CCc1cccc(/C=N/[C@@H](CCCNC(=N)N)C(=O)O)c1OC [Example 32, (E)-N2-{[2-methoxy-3-(prop-2-en-1-yl)phenyl]methylidene}-L-arginine]	50 to 69	–
COc1cc(/C=N/[C@@H](CCCNC(=N)N)C(=O)O)cc2c1OCO2 [Example 33, (E)-N2-[(7-methoxy-2H-1,3-benzodioxol-5-yl)methylidene]-L-arginine]	50 to 69	–
N=C(N)NCCC[C@H](/N=C/c1cccc2c1OCO2)C(=O)O [Example 34, (E)-N2-[(2H-1,3-benzodioxol-4-yl)methylidene]-L-arginine]	50 to 69	–
